Test results as given in ChEMBL document CHEMBL1154822, “Synthesis and antiproliferative activity of 7-azaindirubin-3'-oxime, a 7-aza isostere of the natural indirubin pharmacophore” (J Nat Prod, 2009).

How the values were obtained:
Format in all cases: functional
[1] = test system: HOP-92; experiment: Cytotoxicity against human HOP92 cells assessed as cell growth at 0.1 uM after 1 to 11 days by MTT assay; conditions: read-out: Activity
[2] = test system: NCI-H460; experiment: Cytotoxicity against human NCI-H460 cells assessed as cell growth at 1 uM after 1 to 11 days by MTT assay; conditions: read-out: Activity
[3] = test system: DU-145; experiment: Cytotoxicity against human DU145 cells assessed as cell growth at 100 uM after 1 to 11 days by MTT assay; conditions: read-out: Activity
[4] = test system: SW-620; experiment: Cytotoxicity against human SW620 cells assessed as cell growth at 100 uM after 1 to 11 days by MTT assay; conditions: read-out: Activity
[5] = test system: T47D; experiment: Cytotoxicity against human T47D cells after 1 to 11 days by MTT assay
[6] = Cytotoxicity against human Hs 578T cells assessed as cell growth at 100 uM after 1 to 11 days by MTT assay; conditions: read-out: Activity
[7] = test system: MOLT-4; experiment: Cytotoxicity against human MOLT4 cells assessed as cell growth at 100 uM after 1 to 11 days by MTT assay; conditions: read-out: Activity
[8] = test system: NCI-H23; experiment: Cytotoxicity against human NCI-H23 cells after 1 to 11 days by MTT assay
[9] = test system: NCI/ADR-RES; experiment: Cytotoxicity against human NCI/ADR-RES cells after 1 to 11 days by MTT assay
[10] = test system: OVCAR-3; experiment: Cytotoxicity against human OVCAR-3 cells assessed as cell growth at 1 uM after 1 to 11 days by MTT assay; conditions: read-out: Activity
[11] = test system: NCI/ADR-RES; experiment: Cytotoxicity against human NCI/ADR-RES cells assessed as cell growth at 0.1 uM after 1 to 11 days by MTT assay; conditions: read-out: Activity
[12] = test system: SK-MEL-5; experiment: Cytotoxicity against human SK-MEL-5 cells assessed as cell growth at 100 uM after 1 to 11 days by MTT assay; conditions: read-out: Activity
[13] = Cytotoxicity against human Hs 578T cells assessed as cell growth at 1 mM after 1 to 11 days by MTT assay; conditions: read-out: Activity
[14] = test system: HOP-92; experiment: Cytotoxicity against human HOP92 cells assessed as cell growth at 1 mM after 1 to 11 days by MTT assay; conditions: read-out: Activity
[15] = test system: NCI/ADR-RES; experiment: Cytotoxicity against human NCI/ADR-RES cells assessed as cell growth at 1 mM after 1 to 11 days by MTT assay; conditions: read-out: Activity
[16] = test system: RPMI-8226; experiment: Cytotoxicity against human RPMI8226 cells assessed as cell growth at 10 uM after 1 to 11 days by MTT assay; conditions: read-out: Activity
[17] = test system: HCT-116; experiment: Cytotoxicity against human HCT116 cells assessed as cell growth at 100 uM after 1 to 11 days by MTT assay; conditions: read-out: Activity
[18] = test system: HL-60(TB); experiment: Cytotoxicity against human HL-60(TB) cells assessed as cell growth at 100 uM after 1 to 11 days by MTT assay; conditions: read-out: Activity
[19] = test system: HCC 2998; experiment: Cytotoxicity against human HCC2998 cells assessed as cell growth at 10 uM after 1 to 11 days by MTT assay; conditions: read-out: Activity
[20] = test system: 786-0; experiment: Cytotoxicity against human 786-0 cells assessed as cell growth at 100 uM after 1 to 11 days by MTT assay; conditions: read-out: Activity
[21] = test system: KM12; experiment: Cytotoxicity against human KM12 cells assessed as cell growth at 100 uM after 1 to 11 days by MTT assay; conditions: read-out: Activity
[22] = test system: IGROV-1; experiment: Cytotoxicity against human IGROV1 cells assessed as cell growth at 0.1 uM after 1 to 11 days by MTT assay; conditions: read-out: Activity
[23] = test system: NCI/ADR-RES; experiment: Cytotoxicity against human NCI/ADR-RES cells assessed as cell growth at 100 uM after 1 to 11 days by MTT assay; conditions: read-out: Activity
[24] = test system: NCI-H322M; experiment: Cytotoxicity against human NCI-H322M cells assessed as cell growth at 0.1 uM after 1 to 11 days by MTT assay; conditions: read-out: Activity
[25] = test system: SF-268; experiment: Cytotoxicity against human SF268 cells assessed as cell growth at 0.1 uM after 1 to 11 days by MTT assay; conditions: read-out: Activity
[26] = test system: OVCAR-8; experiment: Cytotoxicity against human OVCAR8 cells assessed as cell growth at 100 uM after 1 to 11 days by MTT assay; conditions: read-out: Activity
[27] = test system: HT-29; experiment: Cytotoxicity against human HT-29 cells assessed as cell growth at 1 mM after 1 to 11 days by MTT assay; conditions: read-out: Activity
[28] = test system: SK-OV-3; experiment: Cytotoxicity against human SKOV3 cells assessed as cell growth at 10 uM after 1 to 11 days by MTT assay; conditions: read-out: Activity
[29] = test system: NCI-H226; experiment: Cytotoxicity against human NCI-H226 cells assessed as cell growth at 1 uM after 1 to 11 days by MTT assay; conditions: read-out: Activity
[30] = test system: SNB-75; experiment: Cytotoxicity against human SNB75 cells assessed as cell growth at 10 uM after 1 to 11 days by MTT assay; conditions: read-out: Activity
[31] = test system: UO-31; experiment: Cytotoxicity against human UO31 cells assessed as cell growth at 100 uM after 1 to 11 days by MTT assay; conditions: read-out: Activity
[32] = test system: K562; experiment: Cytotoxicity against human K562 cells assessed as cell growth at 1 uM after 1 to 11 days by MTT assay; conditions: read-out: Activity
[33] = test system: A498; experiment: Cytotoxicity against human A498 cells assessed as cell growth at 1 uM after 1 to 11 days by MTT assay; conditions: read-out: Activity
[34] = test system: UACC-257; experiment: Cytotoxicity against human UACC257 cells assessed as cell growth at 100 uM after 1 to 11 days by MTT assay; conditions: read-out: Activity
[35] = test system: HCC 2998; experiment: Cytotoxicity against human HCC2998 cells assessed as cell growth at 100 uM after 1 to 11 days by MTT assay; conditions: read-out: Activity
[36] = test system: UO-31; experiment: Cytotoxicity against human UO31 cells assessed as cell growth at 0.1 uM after 1 to 11 days by MTT assay; conditions: read-out: Activity
[37] = test system: UACC-62; experiment: Cytotoxicity against human UACC62 cells after 1 to 11 days by MTT assay
[38] = test system: IGROV-1; experiment: Cytotoxicity against human IGROV1 cells after 1 to 11 days by MTT assay
[39] = test system: SNB-75; experiment: Cytotoxicity against human SNB75 cells after 1 to 11 days by MTT assay
[40] = test system: NCI-H460; experiment: Cytotoxicity against human NCI-H460 cells after 1 to 11 days by MTT assay
[41] = test system: RPMI-8226; experiment: Cytotoxicity against human RPMI8226 cells assessed as cell growth at 0.1 uM after 1 to 11 days by MTT assay; conditions: read-out: Activity
[42] = test system: SF-539; experiment: Cytotoxicity against human SF539 cells assessed as cell growth at 100 uM after 1 to 11 days by MTT assay; conditions: read-out: Activity
[43] = test system: SNB-75; experiment: Cytotoxicity against human SNB75 cells assessed as cell growth at 1 mM after 1 to 11 days by MTT assay; conditions: read-out: Activity
[44] = read-out: LC50 (the source's name)

Structure (SMILES): O=C1Nc2ncccc2/C1=C1/Nc2ccccc2/C1=N\O
- growth at 0.1 µM [1]: 102%
- growth at 1 µM [2]: 105%
- growth at 100 µM [3]: 39%
- growth at 100 µM [4]: 43%
- GI50 [5]: 2.03 µM
- TGI [5]: > 100 µM
- CC50 [5, 44]: > 100 µM
- growth at 100 µM [6]: 4%
- growth at 100 µM [7]: 26%
- GI50 [8]: > 100 µM
- TGI [8]: > 100 µM
- CC50 [8, 44]: > 100 µM
- GI50 [9]: > 100 µM
- TGI [9]: > 100 µM
- CC50 [9, 44]: > 100 µM
- growth at 1 µM [10]: 93%
- growth at 0.1 µM [11]: 99%
- growth at 100 µM [12]: 49%
- growth at 1000 µM [13]: 31%
- growth at 1000 µM [14]: 44%
- growth at 1000 µM [15]: 55%
- growth at 10 µM [16]: 68%
- growth at 100 µM [17]: 46%
- growth at 100 µM [18]: 38%
- growth at 10 µM [19]: 88%
- growth at 100 µM [20]: 41%
- growth at 100 µM [21]: 6%
- growth at 0.1 µM [22]: 102%
- growth at 100 µM [23]: 57%
- growth at 0.1 µM [24]: 95%
- growth at 0.1 µM [25]: 100%
- growth at 100 µM [26]: 50%
- growth at 1000 µM [27]: 48%
- growth at 10 µM [28]: 69%
- growth at 1 µM [29]: 84%
- growth at 10 µM [30]: 86%
- growth at 100 µM [31]: 3%
- growth at 1 µM [32]: 76%
- growth at 1 µM [33]: 85%
- growth at 100 µM [34]: 79%
- growth at 100 µM [35]: 39%
- growth at 0.1 µM [36]: 85%
- GI50 [37]: 3.49 µM
- TGI [37]: > 100 µM
- CC50 [37, 44]: > 100 µM
- GI50 [38]: 1.64 µM
- TGI [38]: > 100 µM
- CC50 [38, 44]: > 100 µM
- GI50 [39]: 3.13 µM
- TGI [39]: > 100 µM
- CC50 [39, 44]: > 100 µM
- GI50 [40]: 7.02 µM
- TGI [40]: > 100 µM
- CC50 [40, 44]: > 100 µM
- growth at 0.1 µM [41]: 95%
- growth at 100 µM [42]: 60%
- growth at 1000 µM [43]: 19%
